Data on 11 compounds can be found in patent publication US9708368B2, “Linear peptide antibiotics” (priority 2012, dated 2017).

SMILES strings stand for the structures. In brackets after ≈: the same amount, converted by molar mass. Read-outs that look alike come from different tables or passages of the source. Square brackets hold non-standard residues; d marks the D form. Peptide text beside a SMILES is read from it. * marks the point of attachment. ξ: configuration not given here. Biphenylcarbonyl(4'-Bu) = CCCCc1ccc(-c2ccc(C(=O)*)cc2)cc1; Benzoyl(4-hexyl) = CCCCCCc1ccc(C(=O)*)cc1; X5 = C[C@H](N*)B1OC2C3CCC(C3(C)C)C2(C)O1; NMeThr(3ξ) = CN[C@H](C(=O)O)C(C)O; Myristoyl = CCCCCCCCCCCCCC(=O)*; Thr(3ξ) = CC(O)[C@H](N)C(=O)O; Decanoyl = CCCCCCCCCC(=O)*; boroAla = C[C@H](N*)B(O)O; Dab = NCC[C@H](N)C(=O)O; boroGly = OB(O)CN*; ξP = O=C(O)C1CCCN1; ξA = CC(N)C(=O)O

Test [1] relates to Escherichia coli MC4100 IMP-4213 in which transcription of the SPase encoding gene is under control of a tetracycline inducible promoter. The note with it: Method A; E. coli MC4100 IMP-4213 with decreased SPase expression; 35° C., 22 hours.
Method: (§1) In vitro antimicrobial activity of each compound was determined by measuring minimal inhibitor concentrations (MICs) using the broth micro-dilution technique as approved by the Clinical and Laboratory Standards Institute (CLSI). […] Cells were inoculated onto Trypyticase Soy Agar or Luria Agar containing 16 ng/ml of anhydrotetracycline respectively and grown at 35° C. for 20 hours. Inocula suspensions were made by scraping cells into 1 mL of testing media (cation adjusted Mueller Hinton Broth supplemented with 0.002% v/v Tween-80) and diluting to a final OD600 nm of 0.01.
(§2) Test compounds were prepared in DMSO at a concentration of 10 mg/ml. […] Inocula suspensions were added to the two fold serial dilutions of test compounds to a final density of OD OD600 nm of 0.0005 and incubated stationary at 35° C. for 22 hours, after which the plates were examined visually.
In test [2] the test system is Methicillin Resistant Staphylococcus aureus strain USA 300 (NRS384). The note with it: Method A; MRSA USA 300 (NRS384); 35° C., 22 hours.
Method: as §1, §2
The target in test [3] is T1, S. aureus SPase (Staphylococcus aureus, UniProt P0A070). In words: biochemical.
T1 sequence (P0A070 whole entry): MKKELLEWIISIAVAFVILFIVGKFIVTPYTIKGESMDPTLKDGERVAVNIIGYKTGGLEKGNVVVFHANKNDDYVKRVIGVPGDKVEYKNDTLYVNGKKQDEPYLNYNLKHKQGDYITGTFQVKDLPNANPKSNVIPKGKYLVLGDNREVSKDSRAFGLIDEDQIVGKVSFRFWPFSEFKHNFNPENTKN
Test [4] addresses E. coli SPase (Escherichia coli, UniProt P00803). In words: Biochemical SPase activity assay (fluorogenic peptide substrate), E. coli enzyme.
Method: Reactions were initiated by the addition of substrate to a final concentration of 20 μM. Reaction progress was monitored by measuring the increase in fluorescence signal (excitation at 314 nm, emission at 416 nm) using a SpectraMax M2 fluorescence microplate reader. […] Three-folder serial dilutions of test compounds, starting at 10 μM, were prepared in enzyme mix solution and incubated at room temperature for 10 minutes. Following this incubation, fluorogenic substrate was added to a final concentration of 20 μM and the increase in fluorescence, corresponding to substrate cleavage, was monitored continuously at room temperature for 1 hour. Initial reaction rates were calculated based on the rate of increase in fluorescence during the reaction. Reaction rates were plotted as a function of compound concentration, and IC50 values are determined nonlinear regression analysis (SoftMaxPro 5.4, Molecular Devices™) of the sigmoidal dose-response curve.
Test [5] addresses T1, S. aureus SPase. To be noted: read-out: IC 50 (nM) S. aureus.

Chain of E. coli SPase (P00803 whole entry): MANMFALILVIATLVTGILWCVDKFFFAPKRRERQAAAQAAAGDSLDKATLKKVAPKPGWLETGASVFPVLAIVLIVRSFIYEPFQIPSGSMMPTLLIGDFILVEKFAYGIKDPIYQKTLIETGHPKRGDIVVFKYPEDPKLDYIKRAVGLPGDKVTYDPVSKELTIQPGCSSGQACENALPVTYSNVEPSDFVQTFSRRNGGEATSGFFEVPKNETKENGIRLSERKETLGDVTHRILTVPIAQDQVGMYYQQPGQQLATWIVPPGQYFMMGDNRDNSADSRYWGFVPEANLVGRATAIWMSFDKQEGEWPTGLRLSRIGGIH

For `CCCCc1ccc(-c2ccc(C(=O)N[C@H](CO)C(=O)N[C@H](C)C(=O)NCC(=O)N3CCCC3C(=O)N[C@@H](C)C(=O)N[C@@H](CC(N)=O)C(=O)NCB(O)O)cc2)cc1` (stereo partly drawn) [Compound 117] ({Biphenylcarbonyl(4'-Bu)}-[dS][dA]G[ξP]AN-boroGly), the “MIC (μg/mL) E. coli” value in test [1] was >64 µg/mL. In test [2], the “MIC (μg/mL) S. aureus” value is >64 µg/mL. Moreover, the IC50 in test [3] turned out to be 350 nM; in test [4], 300 nM.

Consider `CCCCCCc1ccc(C(=O)N[C@H](CO)C(=O)N[C@H](C)C(=O)NCC(=O)N(C)[C@H](C(=O)N[C@@H](C)C(=O)N[C@@H](CC(C)C)C(=O)NCC=O)C(C)O)cc1` (stereo partly drawn) [Compound 102] ({Benzoyl(4-hexyl)}-[dS][dA]G[NMeThr(3ξ)]ALG-aldehyde), for which the “MIC (μg/mL) E. coli” value in test [1] is >64 µg/mL. Moreover, the “MIC (μg/mL) S. aureus” value in test [2] is >64 µg/mL. The IC50 in test [3] came to 9.7 nM; in test [4] it was 18000 nM.

As for `CCCCc1ccc(-c2ccc(C(=O)N[C@H](CO)C(=O)N[C@H](C)C(=O)N3CCC[C@H]3C(=O)N[C@H](C(=O)N[C@@H](C)C(=O)N[C@@H](CC(N)=O)C(=O)NCB(O)O)C(C)O)cc2)cc1` (stereo partly drawn) [Compound 116] ({Biphenylcarbonyl(4'-Bu)}-[dS][dA]P[Thr(3ξ)]AN-boroGly), the “MIC (μg/mL) E. coli” value in test [1] was >64 µg/mL. Moreover, the “MIC (μg/mL) S. aureus” value in test [2] is >64 µg/mL. Also, the IC50 amounted to 38 nM in test [3] and 310 nM in test [4].

Consider `CCCCCCCCCC(=O)N[C@@H](CC(C)C)C(=O)N[C@H](C(=O)N1CCC[C@@H]1C(=O)N[C@H](C(=O)N[C@@H](C)C(=O)N[C@@H](Cc1ccc(O)cc1)C(=O)NC(C)C(=O)C(=O)NC)C(C)O)C(C)O` (mixture of isomers) [Compound 111], for which the “MIC (μg/mL) E. coli” value in test [1] is >64 µg/mL. Moreover, in test [2], the “MIC (μg/mL) S. aureus” value is >64 µg/mL. For the same compound, the IC50 in test [3] was 18000 nM; in test [4] it was 4900 nM.

Consider `CCCCCCCCCC(=O)N[C@@H](CC(C)C)C(=O)N[C@H](C(=O)N1CCC[C@@H]1C(=O)N[C@H](C(=O)N[C@@H](C)C(=O)N[C@@H](Cc1ccc(O)cc1)C(=O)NCB(O)O)C(C)O)C(C)O` (stereo partly drawn) [Compound 128] (Decanoyl-L[Thr(3ξ)][dP][Thr(3ξ)]AY-boroGly), for which the “MIC (μg/mL) E. coli” value in test [1] is >64 µg/mL. Further, the “MIC (μg/mL) S. aureus” value in test [2] is >64 µg/mL. Also, the IC50 came out at 670 nM in test [3] and 3000 nM in test [4].

`CCCCCCc1ccc(C(=O)N[C@H](CO)C(=O)N[C@H](C)C(=O)NCC(=O)N(C)[C@H](C(=O)N[C@@H](C)C(=O)N[C@@H](CC(N)=O)C(=O)NCC=O)C(C)O)cc1` (stereo partly drawn) [Compound 101] ({Benzoyl(4-hexyl)}-[dS][dA]G[NMeThr(3ξ)]ANG-aldehyde): the “MIC (μg/mL) E. coli” value in test [1] is >64 µg/mL. In addition, the “MIC (μg/mL) S. aureus” value in test [2] is >64 µg/mL. Further, the IC50 in test [3] was 86 nM; in test [4], 11000 nM.

For `CCCCCCCCCCCCCC(=O)N[C@@H](CC(C)C)C(=O)N[C@H](C(=O)N1CCC[C@@H]1C(=O)N[C@H](C(=O)N[C@@H](C)C(=O)N[C@@H](CC(N)=O)C(=O)NC(C)C=O)C(C)O)C(C)O` (stereo partly drawn) [Compound 108] (Myristoyl-L[Thr(3ξ)][dP][Thr(3ξ)]AN[ξA]-aldehyde), in test [1], the “MIC (μg/mL) E. coli” value is >64 µg/mL. In addition, the “MIC (μg/mL) S. aureus” value in test [2] worked out at 64 µg/mL (≈ 72.6 µM). The IC50 in test [3] came to 2100 nM; in test [4], 20000 nM.

As to `CCCCCCCCCCCCCC(=O)N[C@H](CO)C(=O)N[C@H](C)C(=O)NCC(=O)N(C)[C@H](C(=O)N[C@@H](C)C(=O)N[C@@H](CC(C)C)C(=O)N[C@@H](C)B1OC2C3CCC(C3(C)C)C2(C)O1)C(C)O` (stereo partly drawn) [Compound 123] (Myristoyl-[dS][dA]G[NMeThr(3ξ)]AL-X5), the “MIC (μg/mL) E. coli” value in test [1] was 25 µg/mL (≈ 26.4 µM). Further, in test [2], the “MIC (μg/mL) S. aureus” value stood at 64 µg/mL (≈ 67.5 µM). Also, the IC50 was 42 nM in test [3] and 220 nM in test [4].

For `CCCCc1ccc(-c2ccc(C(=O)N[C@@H](CCN)C(=O)N[C@H](C(=O)N[C@@H](C)C(=O)N[C@@H](CCCCN)C(=O)N[C@@H](C)B(O)O)[C@@H](C)O)cc2)cc1` [Compound 238] ({Biphenylcarbonyl(4'-Bu)}-[Dab]TAK-boroAla), the IC50 in test [5] was determined as 33 nM; in test [4] (read-out: IC 50 (nM) E. coli, E. coli SPase 2.5 nM, substrate 20 μM, 10 minutes pre-incubation), 4.6 nM.

For `CCCCc1ccc(-c2ccc(C(=O)N[C@H](CO)C(=O)N[C@H](C)C(=O)NCC(=O)N[C@H](C(=O)N[C@@H](C)C(=O)N[C@@H](CC(N)=O)C(=O)NCB(O)O)C(C)O)cc2)cc1` (stereo partly drawn) [Compound 115] ({Biphenylcarbonyl(4'-Bu)}-[dS][dA]G[Thr(3ξ)]AN-boroGly), the “MIC (μg/mL) E. coli” value in test [1] is >64 µg/mL. Also, the “MIC (μg/mL) S. aureus” value in test [2] is >64 µg/mL. Moreover, the IC50 stood at 170 nM in test [3] and 1000 nM in test [4].

With `CCCCCCCCCCCCCC(=O)N[C@H](CO)C(=O)N[C@H](C)C(=O)NCC(=O)N(C)[C@H](C(=O)N[C@@H](C)C(=O)N[C@@H](CC(C)C)C(=O)NCB(O)O)C(C)O` (stereo partly drawn) [Compound 122] (Myristoyl-[dS][dA]G[NMeThr(3ξ)]AL-boroGly), the “MIC (μg/mL) E. coli” value in test [1] was >64 µg/mL. In test [2], the “MIC (μg/mL) S. aureus” value stood at 40 µg/mL (≈ 50 µM). Also, the IC50 in test [3] worked out at 7.6 nM; in test [4], 1500 nM.
